From patent US20150290148A1 (priority 2006, published 2015)
“Also recorded” adds a separate entry of the source.

Assays:
[1] = test system: gerbils; assay: Preliminary dose study and observations in gerbils following surgery; assay type: in vivo, gerbil
[2] = test system: male Wistar rats; assay: MCA embolic stroke in rats, infarct size by TTC staining; assay type: in vivo, rat
[3] = test system: interleukin 6 (IL6) gene; assay: Quantitative real time PCR of hippocampal gene expression after IP injection; assay type: in vivo, Sprague-Dawley rats; settings: 6 hours after single IP 1.0 mg/kg
[4] = rats; cited from earlier work
[5] = test system: neuropeptide Y; assay: Quantitative real time PCR of hippocampal gene expression after IP injection; assay type: in vivo, Sprague-Dawley rats; settings: 6 hours after single IP 1.0 mg/kg, vs saline
[6] = test system: hippocampal CA1 region; assay: Gerbil 5-min 2-VO transient cerebral ischemia, histological rating of hippocampal CA1; assay type: in vivo; settings: for damage to hippocampal CA1 following ischemic insult: MAP 5 mg/kg 1-2 minutes after ischemic insult
Procedure: (§1) Gerbils were anesthetized with isoflurane and core-body temperature maintained at 37-38 C during surgery using a homeothermic blanket (Harvard Apparatus, South Natick, USA). A midline incision was made in the neck and the common carotid arteries were isolated and occluded for 5 min using 85-gm pressure aneurysm clips (ISCH; n=14). A second group of gerbils (SHAM; n=14) underwent the identical procedure except the carotid arteries were not clamped. The incision was sutured and animals received MAP (5 mg/kg; i.p) or equal volume of vehicle (saline; 0 mg) within 2 minutes of reperfusion. Animals were placed in a warmed cage, and observed for 30 minutes. Tylenol (8 mg/ml) was added to drinking water to provide postoperative analgesia.
(§2) Each gerbil was tested 48 hrs following surgery in an open-field apparatus consisting of a metal screen floor 77 cm×77 cm with walls 15 cm in height. Animals were placed in the center region and permitted to explore the novel environment for 5 minutes. Behavioral data (distance traveled, speed) were collected using an automated tracking system (ANY-maze, Stoelting, Ill.) and evaluated separately using ANOVA and the appropriate post hoc test (P<0.05 considered significant). Twenty-one days postsurgery, gerbils were euthanized with CO2 and perfused with phosphate buffered saline followed by 4% paraformaldehyde. Tissue from sham gerbils treated with MAP ([…]) was not evaluated since acute administration of MAP was not expected to histologically alter the hippocampus of this group. Brains were removed and post-fixed for at least 48 hrs prior to collection of 40 μm vibratome sections through the hippocampal region. Sections were mounted on slides and stained with cresyl violet. Damage to the hippocampal CA1 region was evaluated without knowledge of treatment condition by two independent observers using a 4 point rating scale described elsewhere (Babcock et al. 1993). A score of 0 (4-5 compact layers of normal neuronal bodies), 1 (4-5 compact layers with presence of some altered neurons), 2 (spares neuronal bodies with “ghost spaces” and/or glial cells between them), 3 (complete absence or presence of only rare normal neuronal bodies with intense gliosis of the CA1 subfield) was assigned for each animal. Ratings were averaged and evaluated using nonparametric statistics (Kruskal-Wallis and Mann-Whitney U test; P<0.05 considered significant).

[7] = test system: male Wistar rats; assay: MCA embolic stroke in rats, adhesive tape removal test; assay type: in vivo, rat
[8] = test system: BcL2; assay: Quantitative real time PCR of hippocampal gene expression after IP injection; assay type: in vivo, Sprague-Dawley rats; settings: 6 hours after single IP 1.0 mg/kg, vs saline
[9] = test system: interleukin 10 (IL10) gene; assay: as above; assay type: in vivo, Sprague-Dawley rats
[10] = test system: neurotrophic factor 3; assay: as above; assay type: in vivo, Sprague-Dawley rats; settings: 6 hours after single IP 1.0 mg/kg, vs saline
[11] = test system: male Wistar rats; assay: MCA embolic stroke in rats, modified neurological severity score / neurobehavioral outcomes
Text: Male Wistar rats at ages of 8-12 weeks, weighing 300-450 g were used in all experiments. A donor rat was anesthetized with 3.5% Isoflurane, and anesthesia was maintained with 1.0-1.5% Isoflurane in 70% N2O and 30% O2 using a face mask. […] Rats were then anesthetized with 3.5% Isoflurane, and anesthesia was maintained with 1.0-1.5% Isoflurane in 70% N2O and 30% O2 using a face mask throughout the surgical procedure. The animal's muzzle was placed in the face mask 2 cm from the surgical site. Rectal temperature was maintained at 37±″0.5° C. throughout the surgical procedure using an electric heating system. Under a surgical operating microscope) the right common carotid arteries (CCA), the right external carotid artery (ECA) and the internal carotid artery (ICA) were isolated via a 3 cm ventral neck midline incision. A 6-0 silk suture was loosely tied at the origin of the ECA and ligated at the distal end of the ECA. The right CCA and ICA was temporarily clamped using a curved microvascular clip (Codman & Shurtleff, Inc., Randolf, MAP, USA). A modified PE-50 catheter filled with a single clot (˜1 μl), was attached to a 100-μl Hamilton syringe, and introduced into the ECA lumen through a small puncture. The suture around the origin of the ECA was tightened around the intraluminal catheter to prevent bleeding, and the microvascular clip was removed. The catheter was gently advanced from the ECA into the lumen of the ICA. The clot along with 5 μl of saline in the catheter was injected into the ICA over 10 seconds. The catheter was withdrawn from the right ECA immediately after injection. The right ECA was ligated. The duration of the entire surgical procedure was approximately 25 min.
Implantation of osmotic pumps for the purpose of continuous IV infusion occurred at both 6 and 12 hours after delivery of the 4cm clot. Experimental control for the experiment was achieved by substituting methamphetamine for physiological saline. Briefly, at 6 or 12 hours post stroke animals were re-anesthetized using 1-3% isoflurane. After a state of anesthesia was achieved the right side groin area was shaved. After shaving, surgical tape was utilized to remove excess hair. The area was scrubbed with betadine and allowed to dry.
A small incision was made and the groin area was blunt dissected to expose the femoral vein. The femoral vein was separated with surgical tweezers and the distal end was permanently ligated using 6-0 silk thread. The proximal end was ligated and a 0.2 mm incision (approximate) was made in the femoral vein. A 2.5 cm length of polyvinyl tubing (OD 0.07mm) connected to a pre-loaded osmotic pump (Alzet Corp. model 2001D; 6.6 microliters per hour for 24 hrs) was inserted into the vein and gently pushed up towards midline of the body. The tubing was inserted until 0.5 cm was exposed from the vein. The tubing was tied around the vein in two locations using 6-0 silk spaced approximately 2 mm apart. A small pocket was blunt dissected along the groin/abdominal area. The osmotic pump was inserted into the area on the outer wall of the abdomen underneath the skin and sutured into the abdominal fascia using 4-0 synthetic suture. The incision was closed using 4-0 synthetic suture. At 48-72 hours after initial insertion the animal was anesthetized, the groin area was scrubbed with betadine, the incision was reopened, blunt dissected, and the pump exposed. The sutures holding the pump and tubing in place were cut, the pump removed, and the femoral vein was permanently ligated using 6-0 silk suture. The pump was discarded and the incision was closed using 4-0 synthetic suture.

[12] = test system: male Wistar rats; assay: MCA embolic stroke in rats, foot fault; assay type: in vivo, rat; settings: 1.0 mg/kg/hr, started 0, 6 or 12 hours after stroke
[13] = test system: male Wistar rats; assay: Traumatic brain injury (fluid percussion) in rats, tolerability; assay type: in vivo, rat; settings: 0.5 mg/kg/hr 24 hr IV infusion plus bolus after TBI
Procedure: Three groups of male Wistar rats/group were used in this study. The animals were given 0 (vehicle control; saline), 0 (sham controls) or 0.5 mg/kg/hr MA via a 24 hr continuous IV infusion starting 3 hr after […] on Day 0. The test article was administered via an Alzet mini-osmotic pump at a rate of 0.0073 mL/hour. The dose concentration of MA loaded in the Alzet pump varied between animals (45.8-65.0 mg/mL), and was based on individual animal body weight on Day 0 and the dose concentration that would yield 0.5 mg/kg/hr MA at an infusion rate of 0.0073 mL/hr. Dosing of the animals was staggered over a 4-month period.
Prior to test article administration, all rats were subjected to a surgical procedure to produce a fluid percussion injury. Adult Sprague-Dawley rats (male, 350-500 g) are anesthetized with isoflurane anesthesia (1% isofluorane in 1 L/min O2) via face mask to effect for a small craniectomy (4.80 mm) and placement of a rigid Luer-loc needle hub (3 mm inside diameter). After luer lock hub placement, the hub is connected to the Cell Injury Controller through high pressure rubber tubing that delivers an fluid pulse to the dura. […] The righting reflex time after injury was recorded. […] Animals were monitored 3-4 times a day for the first 48 hr following surgery and daily thereafter for 14 days.

[14] = test system: gerbils; assay: Gerbil 5-min 2-VO transient cerebral ischemia, open field activity; assay type: in vivo; settings: for distance traveled in open field: tested 48 hrs after surgery, 5 min
Procedure: as §1, §2

[15] = test system: brain derived neurotrophic factor; assay: Quantitative real time PCR of hippocampal gene expression after IP injection; assay type: in vivo, Sprague-Dawley rats; settings: 6 hours after single IP 1.0 mg/kg, vs saline
[16] = 0.1 mg/kg/hr IV infusion 24 hrs, immediately after stroke
[17] = 1.0 mg/kg/hr IV infusion 24 hrs, started 6 hours after stroke
[18] = 1.0 mg/kg/hr IV infusion 24 hrs, started 6 hours after stroke, listed as MAP
[19] = 1.0 mg/kg/hr IV infusion 24 hrs, started 12 hours after stroke, listed as MAP
[20] = 0.5 and 1.0 mg/kg/hr IV infusion 24 hrs, immediately after stroke
[21] = 0.5 and 1.0 mg/kg/hr IV infusion 24 hrs, immediately after stroke, listed as MAP

CN[C@@H](C)Cc1ccccc1 [methamphetamine]
lethality in gerbils following surgery ([1]; doses greater than 5 mg/kg (10 and 20 mg/kg)): lethal
clinical observation after treatment ([1]; gerbils, MAP 5 mg/kg i.p. after surgery): became piloerect with their tails pointing up
infarct size / infarct volume at 7 days [2, 16]: No significant reductions in infarct volumes
infarct size / infarct volume at 7 days ([2]; 0.1 mg/kg/hr IV infusion 24 hrs, immediately after stroke, listed as MAP): failed to decrease the infarct size
infarct size / infarct volume at 7 days [2, 17]: significant reduction in infarct volumes; also recorded: significantly reduces infarct size
infarct size / infarct volume at 7 days [2, 18]: significantly reduced infarct size
infarct size / infarct volume at 7 days [2, 19]: still significantly reduces infarct size
infarct size / infarct volume at 7 days [2, 20]: reduces brain damage (infarct size); also recorded: significant reduction in infarct volumes
infarct size / infarct volume at 7 days [2, 21]: decreased infarct size
infarct size / infarct volume at 7 days ([2]; 0.5 and 1.0 mg/kg/hr IV infusion 24 hrs, immediately after stroke, listed as Methamphetamine): decreases infarct size
animals with substantial reduction in infarct volumes ([2]; infusion beginning 12 hours after stroke): Four out of the nine
IL6 expression in hippocampus vs saline [3]: not significantly different from saline treated animals
half-life [4]: approximately 1 hr
change in neuropeptide Y gene expression in hippocampus [5]: +192%
histological rating score of hippocampal CA1 damage (0-3 scale) ([6]; ISCH+5 mg MAP group, 21 days after ischemic insult): 0.07±0.07
damage to hippocampal CA1 following ischemic insult ([6]; 21 days): significantly reduced damage to the hippocampal CA1; also recorded: failed to exhibit any damage to the hippocampus
damage to hippocampal CA1 following ischemic insult ([6]; 21 days, listed as MAP): prevented any significant loss of hippocampal CA1 pyramidal cells
animals with any detectable neuronal pathology in the hippocampus ([6]; ischemic gerbils treated with MAP 5 mg/kg, 21 days): 1 of 7
time to remove adhesive tape, day 7 vs day 1 [7, 16]: no significant change in the time to remove tape
time to remove adhesive tape, day 7 vs day 1 ([7]; 1 mg/kg/hr started 6 hours after stroke): improvement in function was still observed
time to remove adhesive tape, day 7 vs day 1 ([7]; 1 mg/kg/hr withheld until 12 hours after stroke (data not shown)): failed to produce an effect
time to remove adhesive tape, day 7 vs day 1 ([7]; 0.5 or 1.0 mg/kg/hr IV infusion 24 hrs, immediately after stroke): required significantly less time to remove the tape
change in BcL2 gene expression in hippocampus [8]: +167%
change in IL10 gene expression in hippocampus ([9]; 1 hour after single IP 1.0 mg/kg, vs saline): 445%
IL10 expression in hippocampus vs saline ([9]; 6 hours after single IP 1.0 mg/kg): not significantly different from saline treated animals
change in neurotrophic factor 3 gene expression in hippocampus [10]: +192%
neurobehavioral outcomes (neurological severity score) [11, 16]: improved neurobehavioral outcomes
neurobehavioral outcomes (neurological severity score) [11, 17]: significant improvement in neurological severity scores; also recorded: significantly decreased neurobehavioral deficits
neurobehavioral outcomes (neurological severity score) [11, 18]: improved neurobehavioral outcomes on all testing parameters
neurobehavioral outcomes (neurological severity score) ([11]; 1.0 mg/kg/hr IV infusion 24 hrs, started 12 hours after stroke): significant improvement in neurological severity scores; also recorded: significantly decreased neurobehavioral deficits
neurobehavioral outcomes (neurological severity score) [11, 19]: robust effect on neurobehavioral outcomes
neurobehavioral outcomes (neurological severity score) [11, 20]: significant improvement in neurological severity scores
neurobehavioral outcomes (neurological severity score) [11, 21]: improved neurobehavioral outcomes
foot fault values [12]: significant improvements in foot fault values
tolerability [13]: well tolerated with no toxicity
open field activity, SHAM+5 mg vs SHAM+0 mg ([14]; MAP 5 mg/kg i.p., 48 hrs after surgery): failed to significantly alter activity levels
open field activity, ischemic vs sham gerbils both treated with MAP ([14]; MAP 5 mg/kg i.p., 48 hrs after surgery, listed as MAP): not significantly different; also recorded: comparable to control levels
distance traveled in open field ([14]; ischemic gerbils, MAP 5 mg/kg i.p. within 2 min of reperfusion): 66.3 m
distance traveled in open field ([14]; sham gerbils, MAP 5 mg/kg i.p.): 72.7 m
change in brain derived neurotrophic factor gene expression in hippocampus [15]: +141%
